Each structure is given as a SMILES string.

Results on 1 molecule are retold here after patent US20260283205A1, “ACYLATED DIHYDROCHALCONES, METHODS OF PRODUCTION AND USES THEREOF” (SYMRISE AG, priority 2023, published 2026).

Assay [1] relates to panel of 20 trained panellists. In words: Intrinsic sweetness: concentration in water equally sweet as a 1.5% sucrose solution. In kind it is in vivo. The conditions noted are these: no significant difference (p<0.05) to 1.5% sucrose. How it is done: Compounds 9, 41, 57, 73 and 89 were provided as described in Example 3 and purified to >95% with preparative chromatography. The obtained compounds were used for sensory evaluations.
The intrinsic sweetness of the compounds was determined by a panel of 20 trained panellists. The intrinsic sweetness of a compound is determined by evaluating the sweetness of the compound at different concentrations in water against a 1.5% sucrose solution.
A mixture of butanoylated HG and a mixture of pentanoylated HG were provided as described in Example 3.
The intrinsic sweetness was determined as described in Example 4. As shown in the table, the concentrations of the acylated compounds, which represent equal sweetness as the 1.5% sucrose solution, are approximately ⅕ to ⅛ of the required concentration of HG (non-acylated). Thus, acylation of HG provides a strong increase of the intrinsic sweetness.

For assay [2] the following is noted: cited from earlier work.
In the next assay the test system is trained flavourist panel. In words: Sensory profile (impact, intensity, mouthfeel, lingering sweetness) of 5% sucrose solution with added compound. In kind it is in vivo. How it is done: A 5% sucrose solution was prepared. Compounds 9, 41, 57, 73 and 89 were provided as described in Example 3 and purified to >95% with preparative chromatography.
The sensory profile of the sucrose solution (control) and the sucrose solution including HG (control), compounds 9, 41, 57, 73 or 89 was determined by a trained flavourist panel comparing the impact, intensity and mouthfeel.

Assay [3] relates to trained sensory panel (n=20). In words: Paired comparison tests (Duo test): sweetness increase of 5% sucrose solution in water. Format: in vivo. More on the design: unit not given here. The conditions noted are these: dosage HG 50, compound 9 10, 41 5, 57 3, 73 5, 89 5 mg/kg. How it is done: The sensory impact of the compounds 9, 41, 57, 73 and 89 on a 5% sucrose solution in water was analysed by a trained sensory panel (n=20) using a series of paired comparison tests (Duo test). The samples were coded and randomized.

[4] abbreviates: 5% sucrose solution (A1) + HG 50 ppm, compound 9 15 ppm, 41 5 ppm, 57 3 ppm, 73 5 ppm, 89 5 ppm, sucrose alone scores 4.

Consider `COc1ccc(CCC(=O)c2c(O)cc(O[C@H]3O[C@@H](CO)[C@H](O)[C@@H](O)[C@@H]3O)cc2O)cc1O` [HG, hesperetin dihydrochalcone-4′-O-β-d-glucoside, reference compound], for which the “Concentration of equal sweetness as 1.5% sucrose control” value in assay [1] was found to be 50 mg/kg. The “sweet taste of HG in water” value in assay [2] (5 mg/kg HG in water) was “does not taste sweet”. Moreover, the isosweet sucrose concentration in assay [2] (10 mg/kg HG in water) was 0.5%. Further, the “isosweet sucrose solution concentration” value in assay [2] (20 mg/kg HG in water) is given as 1%. For the same molecule, in the assay with trained flavourist panel (5% sucrose solution), the “effect on impact, intensity and mouthfeel of the sucrose solution” value is “increases the impact, intensity and mouthfeel”. Also, the Lingering sweetness in the assay with trained flavourist panel (5% sucrose solution (A1) + HG 50 ppm, compound 9 15 ppm, 41 5 ppm, 57 3 ppm, 73 5 ppm, 89 5 ppm, sucrose alone scores 1) turned out to be 2. In addition, the Impact with trained flavourist panel (5% sucrose solution (A1) + HG 50 ppm, compound 9 15 ppm, 41 5 ppm, 57 3 ppm, 73 5 ppm, 89 5 ppm, sucrose alone scores 3) was found to be 4. For the same molecule, in the assay with trained flavourist panel (setting [4]), the Intensity came to 5 and the Mouthfeel was 4-5. Further, the Increase of sweetness in assay [3] is listed as 34.6.
